Experimental data as given in patent US4973704A, “Pyrrolyl intermediates in the synthesis of pyrrole analogs of mevalonolactone and derivatives thereof” (Sandoz Pharm. Corp., priority 1989, dated 1990).
Where two headings read alike, the source gives them in different places.

Columns and labels:
[1] = molecular target: T1, HMG-CoA reductase (Rattus norvegicus, UniProt P51639); assay: Test A. In Vitro Microsomal Assay of HMG-CoA Reductase Inhibition; type: biochemical
T1 construct: from tissue; host or cells: microsomes (printed)
T1 sequence (P51639 1-887): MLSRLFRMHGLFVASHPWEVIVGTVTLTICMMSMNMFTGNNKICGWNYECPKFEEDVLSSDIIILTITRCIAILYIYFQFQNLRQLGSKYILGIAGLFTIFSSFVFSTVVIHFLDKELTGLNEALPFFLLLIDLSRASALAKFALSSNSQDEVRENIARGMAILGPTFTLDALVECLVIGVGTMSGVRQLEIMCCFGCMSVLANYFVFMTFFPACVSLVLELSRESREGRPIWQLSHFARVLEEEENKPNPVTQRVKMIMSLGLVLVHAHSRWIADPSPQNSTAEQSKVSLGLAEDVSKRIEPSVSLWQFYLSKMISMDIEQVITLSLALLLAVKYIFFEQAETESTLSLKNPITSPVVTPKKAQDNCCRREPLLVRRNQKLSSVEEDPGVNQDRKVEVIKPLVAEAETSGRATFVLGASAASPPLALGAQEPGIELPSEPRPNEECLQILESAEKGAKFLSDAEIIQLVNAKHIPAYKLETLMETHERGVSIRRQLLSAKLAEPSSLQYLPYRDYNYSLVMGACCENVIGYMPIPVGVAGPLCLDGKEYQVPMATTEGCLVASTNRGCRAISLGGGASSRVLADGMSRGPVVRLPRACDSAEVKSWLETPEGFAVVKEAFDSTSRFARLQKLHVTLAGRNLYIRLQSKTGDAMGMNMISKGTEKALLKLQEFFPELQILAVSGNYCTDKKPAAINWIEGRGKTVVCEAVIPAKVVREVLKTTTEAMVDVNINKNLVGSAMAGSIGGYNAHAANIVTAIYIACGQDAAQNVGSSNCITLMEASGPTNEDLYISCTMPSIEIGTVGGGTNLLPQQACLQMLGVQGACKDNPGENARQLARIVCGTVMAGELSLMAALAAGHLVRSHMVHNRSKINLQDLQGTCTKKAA
Description: Test A. In Vitro Microsomal Assay of HMG-CoA Reductase Inhibition:
This test is carried out precisely as described in column 53 of U.S. Pat. No. 4,613,610 and on page 30 of World (PCT) Published Patent Application No. 84/02131, both of which are hereby incorporated by reference as if set forth herein in their entirety. The concentration of the test substance (compound of Formula I) in the assay system is 0.0005-2,000 μmolar. The obtained IC50 is the concentration of the test substance in the assay system observed or calculated to produce a 50% inhibition of HMG-CoA reductase activity.

[2] = system: 3β-hydroxysterol synthesis; assay: Test B. In Vivo Cholesterol Biosynthesis Inhibition Test; conditions: Rattus norvegicus, po; rats, orally administered; read-out: ED50 (dose producing 50% inhibition of 3β-hydroxysterol synthesis)
Description: Test B. In Vivo Cholesterol Biosynthesis Inhibition Test:
In this test the rats are orally administered the test substance (compound of Formula I) at a dose of 0.1-200 mg/kg. body weight. The obtained ED50 is the dose of the test substance observed or calculated to produce a 50% inhibition of 3β-hydroxysterol synthesis.

[3] = in vitro microsomal assay, read-out: IC50 (concentration producing 50% inhibition of HMG-CoA reductase activity)

SMILES | IC50 [1] [nM] | IC50 [1, 3] [nM] | ED50 [2] [mg/kg]
CC[C@H](C)C(=O)O[C@H]1C[C@@H](C)C=C2C=C[C@H](C)[C@H](CC[C@@H]3C[C@@H](O)CC(=O)O3)[C@H]21 [Mevinolin] | 720 |  | 
CC(C)c1cc(-c2ccccc2)n(-c2ccc(F)cc2)c1/C=C/[C@@H](O)C[C@@H](O)CC(=O)O (relative stereo) [Example 2, Sodium (±)-erythro-(E)-3,5-dihydroxy-7-[1'-(4"-fluorophenyl)-3'-(1"-methylethyl)-5'-phenyl-1H-pyrrol-2'-yl]hept-6-enoate] |  | 14 | 0.53
CC[C@H](C)C(=O)O[C@H]1CCC=C2C=C[C@H](C)[C@H](CC[C@@H]3C[C@@H](O)CC(=O)O3)[C@H]21 [Compactin] |  | 1100 | 
